What was measured:
[1] = Stability in Simulated Gastric Fluid (SGF); assay type: in vitro ADME; design: key: % parent compound remaining relative to 0-minute sample
How it was run: (§1)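 Compound at 2 μg/mL final was incubated at 37° C with orbital shaking in SGF containing pepsin (pH 1.2) or SIF containing pancreatin (pH 6.8), sampled from 0 to 60 minutes. Parent remaining was measured by LC-MS/MS relative to the 0-minute sample; half-life came from ln(% remaining) versus time when enough points existed.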

[2] = Stability in Simulated Intestinal Fluid (SIF); assay type: in vitro ADME; design: key: % parent compound remaining relative to 0-minute sample
How it was run: as §1

Plasma Stability = assay type: in vitro ADME, human
How it was run: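 Compounds incubated at 1 μM in fresh human plasma for 1 hour at 37° C, then protein-precipitated with acetonitrile/formic acid containing internal standard. Remaining parent measured by LC-MS/MS in triplicate, expressed as percent of control remaining.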

[3] = Caco-2 Permeability Assay; assay type: in vitro ADME, human; details: human
How it was run: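 Caco-2 monolayers cultured 21 days (TEER >600 […]); test article at 10 μM in HBSS/HEPES pH 7.4 transport medium, dosed apical or basolateral, ±Pgp inhibitor. Incubated 90 min at 37 °C; both compartments quantified by LC-MS/MS. Papp (A→B, B→A), efflux ratio and % recovery calculated.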

[4] = % remaining at 1 h in simulated gastric fluid, the 17th table
[5] = % remaining at 1 h in simulated intestinal fluid, the 17th table
[6] = % remaining at 1 h in human plasma, the 17th table
[7] = Caco-2, pH 7.4, Caco-2 monolayer, the 17th table
[8] = simulated gastric fluid, at 1 h
[9] = simulated intestinal fluid, at 1 h
[10] = Caco-2, pH 7.4, Caco-2 monolayer

SGF [1, 4] [% remaining] | SIF [2, 5] [% remaining] | human Plasma stability (Plasma Stability; [6]) [% remaining] | Papp at 90 min, 10 µM [3, 7] [nm/s] | Structure (SMILES) | other results
94 | 1 | 88 | 2.14 | CCCCCCOC(=O)OCn1c(=O)c2c(ccn2COC(=O)OCCCCCC)n(CCOC(C)C)c1=S [Example 215] | 
91 | 1 | 1 | 45.9 | CCCCCOC(=O)OCn1ccc2c1c(=O)nc(S)n2CCOC(C)C [Example 216] | 
88 | 1 | 5 | 53.2 | CCCCCOC(=O)OCSc1nc(=O)c2c(ccn2COC(=O)OCCCCC)n1CCOC(C)C [Example 217] | 
100 | 2 | 74 | 6.5 | CCCCCOC(=O)OCn1c(=O)c2c(ccn2COC(=O)OCCCCC)n(CCOC(C)C)c1=S [Example 218] | 
98 | 23 | 21 | 8.47 | CCCCCCCOC(=O)OCn1ccc2c1c(=O)nc(S)n2CCOC(C)C [Example 219] | 
67 | 68 | 94 | 25.4 | CC(=O)OCc1ccccc1N(C)C(=O)OC(C)n1ccc2c1c(=O)nc(S)n2CCOC(C)C (stereo not shown) [Example 221] | 
98 | 88 | 22 | 20.5 | CC(=O)OCc1ccccc1N(C)C(=O)OCn1ccc2c1c(=O)nc(S)n2CCOC(C)C [Example 222] | 
87 | 70 | 99 | 370 | CC(C)NC(=O)n1ccc2c1c(=O)[nH]c(=S)n2CCOC(C)C [Example 223] | 
83 | 100 | 89 | 126 | CCCCNC(=O)n1ccc2c1c(=O)[nH]c(=S)n2CCOC(C)C [Example 224] | 
98 | 78 | 99 | 243 | CCCNC(=O)n1ccc2c1c(=O)[nH]c(=S)n2CCOC(C)C [Example 225] | 
91 | 83 | 97 | 351 | CCC(C)NC(=O)n1ccc2c1c(=O)[nH]c(=S)n2CCOC(C)C (stereo not shown) [Example 226] | 
100 | 95 | 99 | 16.7 | CC(C)OCCn1c(=S)[nH]c(=O)c2c1ccn2C(=O)Nc1ccccc1 [Example 227] | 
95 | 100 | 99 | 103 | CC(C)OCCn1c(=S)[nH]c(=O)c2c1ccn2C(=O)NCc1ccccc1 [Example 228] | 
 |  |  |  | CC(C)OCCn1c(=S)[nH]c(=O)c2c1ccn2C(=O)NC(C)(C)C [Example 229, N-tert-butyl-4-oxo-1-[2-(propan-2-yloxy)ethyl]-2-sulfanylidene-1H,2H,3H,4H,5H-pyrrolo[3,2-d]pyrimidine-5-carboxamide] | SGF ([1]; % remaining at 1 h, SGF with pepsin pH 1.2, 2 μg/mL, 37° C.): 98%; SIF ([2]; % remaining at 1 h, SIF with pancreatin pH 6.8, 2 μg/mL, 37° C.): 76%; human Plasma stability (Plasma Stability; % remaining at 1 h, human plasma, 1 μM, 37° C.): 96%; Papp at 90 min, 10 µM ([3]; Caco-2, pH 7.4, donor 10 μM, 90 minutes, 37° C., direction not given): 264 nm/s
 |  |  |  | CCOC(=O)n1ccc2c1c(=O)[nH]c(=S)n2CCOC(C)C [Example 230] | SGF [1, 8]: 99% remaining; SIF [2, 9]: 33% remaining; human Plasma stability (Plasma Stability; human plasma, at 1 h): 2% remaining; Papp at 90 min, 10 µM [3, 10]: 4.56 nm/s
 |  |  |  | CC(C)OCCn1c(=S)[nH]c(=O)c2c1ccn2C(=O)OC(C)C [Example 231] | SGF [1, 8]: 100% remaining; SIF [2, 9]: 40% remaining; human Plasma stability (Plasma Stability; human plasma, at 1 h): 0% remaining; Papp at 90 min, 10 µM [3, 10]: 36.3 nm/s

Source: patent US20240067651A1 (Biohaven Therapeutics Ltd., priority 2019, published 2024)
